# Experimental data from ChEMBL document CHEMBL5126543, “Tandem construction of biological relevant aliphatic 5-membered N-heterocycles” (Eur J Med Chem, 2022).
# Where a SMILES comes first, the peptide text is derived from it. [ ]: non-standard residue; d: D form. Pro(trans-4-cHex) = O=C(O)[C@@H]1C[C@@H](C2CCCCC2)CN1; Pro(trans-4-Ph) = O=C(O)[C@@H]1C[C@@H](c2ccccc2)CN1; Pro(cis-4-OPh) = O=C(O)[C@@H]1C[C@H](Oc2ccccc2)CN1; Pro(cis-4-CF3) = O=C(O)[C@@H]1C[C@H](C(F)(F)F)CN1; Pro(4R-Bn) = O=C(O)[C@@H]1C[C@@H](Cc2ccccc2)CN1; Pro(cis-4-F) = O=C(O)[C@@H]1C[C@H](F)CN1; Pro(4S-NH2) = N[C@@H]1CN[C@H](C(=O)O)C1
# Assays:
# [1] = test system: PC-3; test: Cytotoxicity against human PC-3 cells treated for 72 hrs by MTT assay; assay type: functional, cell-based; conditions: PC-3, 72 h
# [2] = test system: SK-BR-3; test: Cytotoxicity against human SK-BR-3 cells treated for 72 hrs by MTT assay; assay type: functional, cell-based; conditions: SK-BR-3, 72 h
# [3] = test system: A549; test: Cytotoxicity against human A549 cells treated for 72 hrs by MTT assay; assay type: functional, cell-based; conditions: A549, 72 h
# [4] = test system: HeLa; test: Cytotoxicity against human HeLa cells treated for 72 hrs by MTT assay; assay type: functional, cell-based
# [5] = test system: MCF7; test: Cytotoxicity against human MCF7 cells treated for 72 hrs by MTT assay; assay type: functional, cell-based; conditions: MCF7, 72 h
# [6] = test system: SNB-19; test: Antiproliferative activity against human SNB-19 cells measured after 72 hrs by WST-1 assay; assay type: functional, cell-based; conditions: SNB-19, 72 h
# [7] = test system: MDA-MB-231; test: Antiproliferative activity against human MDA-MB-231 cells measured after 72 hrs by WST-1 assay; assay type: functional, cell-based; conditions: MDA-MB-231, 72 h
# [8] = Cytotoxicity against HFF-1 cells measured after 72 hrs by WST-1 assay; assay type: toxicity, cell-based; conditions: human
# [9] = test system: C32; test: Antiproliferative activity against human C32 cells measured after 72 hrs by WST-1 assay; assay type: functional, cell-based; conditions: C32, 72 h
# [10] = test system: Escherichia coli; test: Antimicrobial activity against Escherichia coli ATCC 25922 incubated for 18 to 20 hrs; assay type: functional; conditions: time 18-20 hrs
# [11] = test system: Priestia megaterium; test: Antimicrobial activity against Bacillus megaterium Bm11 incubated for 18 to 20 hrs; assay type: functional; conditions: time 18-20 hrs
# [12] = test system: Staphylococcus epidermidis; test: Antimicrobial activity against Staphylococcus epidermidis ATCC 12228 incubated for 18 to 20 hrs; assay type: functional; conditions: time 18-20 hrs
# [13] = test system: Pseudomonas aeruginosa; test: Antimicrobial activity against Pseudomonas aeruginosa ATCC 27853 incubated for 18 to 20 hrs; assay type: functional; conditions: time 18-20 hrs
# [14] = test system: Candida albicans; test: Antimicrobial activity against Candida albicans ATCC 24433 incubated for 18 to 20 hrs; assay type: functional; conditions: time 18-20 hrs
IC50 [7] [µM],Molecule,IC50 [1] [µM],IC50 [2] [µM],IC50 [3] [µM],IC50 [4] [µM],IC50 [5] [µM],IC50 [6] [µM],IC50 at 72 h [8] [µM],IC50 [9] [µM],also measured
74,Cn1c(SCC#CCN2CCOCC2)nc2nc(Cl)nc(SCC#CCN3CCOCC3)c21,–,–,–,–,–,26.1,36.4,4.08,–
19.9,Cn1cnc2nc(SCC#CCN3CCCC3)nc(SCC#CCN3CCCC3)c21,–,–,–,–,–,19.4,10,6.81,–
7.35,Cn1cnc2nc(SCC#CCN3CCCCC3)nc(SCC#CCN3CCCCC3)c21,–,–,–,–,–,4.64,3.98,6.39,–
68.1,CCN(CC)CC#CCSc1nc2c(c(=O)[nH]c(=O)n2C)n1C,–,–,–,–,–,1.48,3.68,26.4,–
6.54,Cn1c(SCC#CCN2CCOCC2)nc2c1c(=O)[nH]c(=O)n2C,–,–,–,–,–,1.39,5.87,22.7,–
38.5,CCN(CC)CC#CCSc1nc(SCC#CCN(CC)CC)c2c(ncn2C)n1,–,–,–,–,–,48.9,5.95,23.9,–
38.1,Cn1c(SCC#CCN2CCCCC2)nc2nc(Cl)nc(SCC#CCN3CCCCC3)c21,–,–,–,–,–,11.6,5.5,19.1,–
10,CCN(CC)CC#CCSc1nc(Cl)nc2nc(SCC#CCN(CC)CC)n(C)c12,–,–,–,–,–,2.91,1,5.33,–
472,Cn1c(SCC#CCN2CCCC2)nc2c1c(=O)[nH]c(=O)n2C,–,–,–,–,–,177,34.3,51.1,–
3.83,Cn1c(SCC#CCN2CCCC2)nc2nc(Cl)nc(SCC#CCN3CCCC3)c21,–,–,–,–,–,0.52,3.63,4.55,–
50.8,Cn1cnc2nc(SCC#CCN3CCOCC3)nc(SCC#CCN3CCOCC3)c21,–,–,–,–,–,21.5,0.37,21.5,–

# More lines, now with the values behind:
Molecule,IC50 [7] [µM],IC50 [1] [µM],IC50 [2] [µM],IC50 [3] [µM],IC50 [4] [µM],IC50 [5] [µM],IC50 [6] [µM],IC50 at 72 h [8] [µM],IC50 [9] [µM],also measured
CN1CCN(Cc2ccc(Nc3ccnc4cc(Cl)ccc34)cc2-c2ccc(Cl)cc2)CC1,–,24.2,16.8,43.5,< 1,25,–,–,–,–
CC[C@H](C)[C@H](NC(=O)[C@H](CCCNC(=N)N)NC(=O)CNC(=O)[C@H](CC(C)C)NC(=O)[C@H](Cc1ccccc1)NC(=O)[C@H](CCCCN)NC(=O)[C@H](CO)NC(=O)[C@H](Cc1ccccc1)NC(=O)[C@H](Cc1c[nH]c2ccccc12)NC(=O)[C@H](CCC(N)=O)NC(=O)[C@@H]1C[C@H](C(F)(F)F)CN1C(=O)[C@@H](NC(=O)[C@@H](N)Cc1ccccc1)C(C)C)C(=O)N[C@@H](CC(C)C)C(N)=O (H-FV[Pro(cis-4-CF3)]QWFSKFLGRIL-NH2),–,–,–,–,–,–,–,–,–,MIC [10]: 12.5 µM; MIC [11]: 3.12 µM; MIC [12]: 3.12 µM; MIC [13]: 25 µM; MIC [14]: 12.5 µM
CC(C)(C)NCc1ccc(Nc2ccnc3cc(Cl)ccc23)cc1,–,149,37.3,197,36,> 250,–,–,–,–
H-FVPQWFSKFLGRIL-NH2,–,–,–,–,–,–,–,–,–,MIC [10]: 12.5 µM; MIC [11]: 3.12 µM; MIC [12]: 3.12 µM; MIC [13]: 25 µM; MIC [14]: 12.5 µM
CCN(CC)Cc1ccc(Nc2ccnc3cc(Cl)ccc23)cc1,–,> 250,121,> 250,2.03,> 250,–,–,–,–
Clc1ccc2c(Nc3ccc(CN4CCCC4)cc3)ccnc2c1,–,42.7,12.7,58.8,28,46.9,–,–,–,–
CC[C@H](C)[C@H](NC(=O)[C@H](CCCNC(=N)N)NC(=O)CNC(=O)[C@H](CC(C)C)NC(=O)[C@H](Cc1ccccc1)NC(=O)[C@H](CCCCN)NC(=O)[C@H](CO)NC(=O)[C@H](Cc1ccccc1)NC(=O)[C@H](Cc1c[nH]c2ccccc12)NC(=O)[C@H](CCC(N)=O)NC(=O)[C@@H]1C[C@H](Oc2ccccc2)CN1C(=O)[C@@H](NC(=O)[C@@H](N)Cc1ccccc1)C(C)C)C(=O)N[C@@H](CC(C)C)C(N)=O (H-FV[Pro(cis-4-OPh)]QWFSKFLGRIL-NH2),–,–,–,–,–,–,–,–,–,MIC [10]: 25 µM; MIC [11]: 3.12 µM; MIC [12]: 3.12 µM; MIC [13]: 50 µM; MIC [14]: 12.5 µM
Clc1ccc2c(Nc3ccc(CN4CCOCC4)c(-c4ccccc4)c3)ccnc2c1,–,11.7,76.5,69,54.4,> 200,–,–,–,–
Clc1ccc(-c2cc(Nc3ccnc4cc(Cl)ccc34)ccc2CN2CCCCC2)cc1,–,> 200,2.98,> 200,> 200,> 200,–,–,–,–
Clc1ccc(-c2cc(Nc3ccnc4cc(Cl)ccc34)ccc2CN2CCOCC2)cc1,–,11.7,2.98,> 200,> 200,170,–,–,–,–
Clc1ccc2c(Nc3ccc(CN4CCCCC4)c(-c4ccccc4)c3)ccnc2c1,–,74.4,64.3,> 210,5.57,> 200,–,–,–,–
CC[C@H](C)[C@H](NC(=O)[C@H](CCCNC(=N)N)NC(=O)CNC(=O)[C@H](CC(C)C)NC(=O)[C@H](Cc1ccccc1)NC(=O)[C@H](CCCCN)NC(=O)[C@H](CO)NC(=O)[C@H](Cc1ccccc1)NC(=O)[C@H](Cc1c[nH]c2ccccc12)NC(=O)[C@H](CCC(N)=O)NC(=O)[C@@H]1C[C@H](F)CN1C(=O)[C@@H](NC(=O)[C@@H](N)Cc1ccccc1)C(C)C)C(=O)N[C@@H](CC(C)C)C(N)=O (H-FV[Pro(cis-4-F)]QWFSKFLGRIL-NH2),–,–,–,–,–,–,–,–,–,MIC [10]: 12.5 µM; MIC [11]: 3.12 µM; MIC [12]: 3.12 µM; MIC [13]: 12.5 µM; MIC [14]: 12.5 µM
CC[C@H](C)[C@H](NC(=O)[C@H](CCCNC(=N)N)NC(=O)CNC(=O)[C@H](CC(C)C)NC(=O)[C@H](Cc1ccccc1)NC(=O)[C@H](CCCCN)NC(=O)[C@H](CO)NC(=O)[C@H](Cc1ccccc1)NC(=O)[C@H](Cc1c[nH]c2ccccc12)NC(=O)[C@H](CCC(N)=O)NC(=O)[C@@H]1C[C@@H](c2ccccc2)CN1C(=O)[C@@H](NC(=O)[C@@H](N)Cc1ccccc1)C(C)C)C(=O)N[C@@H](CC(C)C)C(N)=O (H-FV[Pro(trans-4-Ph)]QWFSKFLGRIL-NH2),–,–,–,–,–,–,–,–,–,MIC [10]: 12.5 µM; MIC [11]: 3.12 µM; MIC [12]: 3.12 µM; MIC [13]: 50 µM; MIC [14]: 12.5 µM
CC[C@H](C)[C@H](NC(=O)[C@H](CCCNC(=N)N)NC(=O)CNC(=O)[C@H](CC(C)C)NC(=O)[C@H](Cc1ccccc1)NC(=O)[C@H](CCCCN)NC(=O)[C@H](CO)NC(=O)[C@H](Cc1ccccc1)NC(=O)[C@H](Cc1c[nH]c2ccccc12)NC(=O)[C@H](CCC(N)=O)NC(=O)[C@@H]1C[C@@H](Cc2ccccc2)CN1C(=O)[C@@H](NC(=O)[C@@H](N)Cc1ccccc1)C(C)C)C(=O)N[C@@H](CC(C)C)C(N)=O (H-FV[Pro(4R-Bn)]QWFSKFLGRIL-NH2),–,–,–,–,–,–,–,–,–,MIC [10]: 25 µM; MIC [11]: 3.12 µM; MIC [12]: 3.12 µM; MIC [13]: 50 µM; MIC [14]: 25 µM
Clc1ccc2c(Nc3ccc(CN4CCCC4)c(-c4ccccc4)c3)ccnc2c1,–,44,0.009,4.38,< 1,7.99,–,–,–,–
Clc1ccc2c(Nc3ccc(CN4CCCCC4)cc3)ccnc2c1,–,149,33.9,> 250,< 1,69.9,–,–,–,–
Cn1c(SCC#CCN2CCCCC2)nc2c1c(=O)[nH]c(=O)n2C,364,–,–,–,–,–,166,30.4,355,–
Clc1ccc(-c2cc(Nc3ccnc4cc(Cl)ccc34)ccc2CN2CCCC2)cc1,–,42.4,32.7,> 200,32,> 200,–,–,–,–
CC[C@H](C)[C@H](NC(=O)[C@H](CCCNC(=N)N)NC(=O)CNC(=O)[C@H](CC(C)C)NC(=O)[C@H](Cc1ccccc1)NC(=O)[C@H](CCCCN)NC(=O)[C@H](CO)NC(=O)[C@H](Cc1ccccc1)NC(=O)[C@H](Cc1c[nH]c2ccccc12)NC(=O)[C@H](CCC(N)=O)NC(=O)[C@@H]1C[C@H](N)CN1C(=O)[C@@H](NC(=O)[C@@H](N)Cc1ccccc1)C(C)C)C(=O)N[C@@H](CC(C)C)C(N)=O (H-FV[Pro(4S-NH2)]QWFSKFLGRIL-NH2),–,–,–,–,–,–,–,–,–,MIC [10]: 3.12 µM; MIC [11]: 3.12 µM; MIC [12]: 3.12 µM; MIC [13]: 3.12 µM; MIC [14]: 12.5 µM
COc1cccc2c1C(=O)c1c(O)c3c(c(O)c1C2=O)C[C@@](O)(C(=O)CO)C[C@@H]3O[C@H]1C[C@H](N)[C@H](O)[C@H](C)O1 [DOXORUBICIN],–,1.66,2.36,–,2.45,3.62,–,–,–,–
Clc1ccc2c(Nc3ccc(CN4CCOCC4)cc3)ccnc2c1,–,11.7,6.16,> 250,< 1,69.5,–,–,–,–
CC[C@H](C)[C@H](NC(=O)[C@H](CCCNC(=N)N)NC(=O)CNC(=O)[C@H](CC(C)C)NC(=O)[C@H](Cc1ccccc1)NC(=O)[C@H](CCCCN)NC(=O)[C@H](CO)NC(=O)[C@H](Cc1ccccc1)NC(=O)[C@H](Cc1c[nH]c2ccccc12)NC(=O)[C@H](CCC(N)=O)NC(=O)[C@@H]1C[C@@H](C2CCCCC2)CN1C(=O)[C@@H](NC(=O)[C@@H](N)Cc1ccccc1)C(C)C)C(=O)N[C@@H](CC(C)C)C(N)=O (H-FV[Pro(trans-4-cHex)]QWFSKFLGRIL-NH2),–,–,–,–,–,–,–,–,–,MIC [10]: 50 µM; MIC [11]: 3.12 µM; MIC [12]: 3.12 µM; MIC [13]: 100 µM; MIC [14]: 25 µM
COc1cc2c(c(OC)c1OC)-c1ccc(OC)c(=O)cc1[C@@H](NC(C)=O)CC2 [COLCHICINE],–,0.03,0.04,–,–,25,–,–,–,–
CCN(CC)Cc1ccc(Nc2ccnc3cc(Cl)ccc23)cc1-c1ccccc1,–,34.2,3.65,33.6,> 200,> 200,–,–,–,–
